Test results taken from US10316313B2, “Mesoporous catalysts of magnetic nanoparticles and free-radical-producing enzymes, and methods of use” (Cornell University, priority 2011, dated 2019).
“Also recorded” adds a separate entry of the source.

Key:
[1] = target: T1, Horseradish Peroxidase (HRP, E.C. 1.11.1.7, type VI-A) entrapped in M90 magnetite nanoparticle clusters (M90-BNC) (Armoracia rusticana, UniProt P00433); test: Phenol/AAP assay, H2O2 substrate inhibition model, M90-BNC; type: biochemical
T1 construct: purchased
T1 sequence (P00433 31-338 limits assumed): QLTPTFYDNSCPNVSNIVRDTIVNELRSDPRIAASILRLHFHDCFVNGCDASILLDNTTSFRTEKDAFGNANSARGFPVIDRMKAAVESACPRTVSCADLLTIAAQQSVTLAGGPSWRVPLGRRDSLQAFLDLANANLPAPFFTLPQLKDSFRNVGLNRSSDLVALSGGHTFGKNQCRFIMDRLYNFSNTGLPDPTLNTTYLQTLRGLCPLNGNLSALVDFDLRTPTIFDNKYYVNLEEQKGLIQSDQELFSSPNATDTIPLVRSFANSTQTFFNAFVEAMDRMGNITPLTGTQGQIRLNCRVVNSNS
From the text: (§1) The enzymes used in this study were Horseradish Peroxidase (HRP, E.C. 1.11.1.7, type VI-A), Lignin Peroxidase (LiP, E.C. 1.11.1.14), Manganese Peroxidase (MnP; E.C. 1.11.1.13) Versatile Peroxidase (syn. hybrid peroxidase, manganese-lignin peroxidase: VeP EC 1.11.1.16), and laccase. All enzymes used herein were obtained from commercial sources. […] High activity forms were obtained by further purification by FPLC (AKTA Explorer, GE Bioscience) using an anionic exchange column (Resource Q, GE Bioscience). Laccase was used without further purification. Protein signal was monitored at 280 nm and the heme signal at 405 nm. For each enzyme, the fractions with a RZ above 1 were pulled together, concentrated and aliquoted. Phenol, homovanillic acid, veratryl alcohol, methoxylphenol, 4-aminoantipyrine (AAP), glucose (the foregoing being at 98% purity), sodium phosphate buffer (PBS) of pH 7.4 and 67 mM, magnetite microsphere powder, manganese sulfate, hydrogen peroxide, FeCl3.6H2O, and FeCl2.4H2O, O-phosphoethydiamine, gold tetrachlorohydrate, and malonate and tartrate disodium salts were obtained from commercial sources.
(§2) Magnetite nanoparticles were synthesized by co-precipitation of Fe^2+ and Fe^3+ under alkaline conditions in a bubbling nitrogen atmosphere at 25° C. (M25) or 90° C. (M90). An acidic solution (25 ml) of the iron salts (2 g of FeCl2.4H2O and 5.2 g of FeCl3.6H2O) was added dropwise to NaOH (250 ml, 1.5 M) under constant stirring. Non-oxidizing conditions were achieved by bubbling all solutions with nitrogen for 15 minutes prior to reaction. The instantaneous black precipitation of Fe3O4 was captured with a neodymium magnet, washed, and neutralized, and kept in distilled water until further use.
(§3) All BNCs were formed with either M90 or M25 magnetite nanoparticles, gold-coated or not. The BNCs were formed with either Horseradish peroxidase, Lignin Peroxidase, Manganese Peroxidase or Versatile Peroxidase. Typical BNC synthesis required the MNPs to be initially monodispersed (i.e., individualized and non-aggregated MNPs). MNPs were sonicated in an ultrasonic bath for 20 minutes at room temperature and used immediately to form the BNCs. In preliminary experiments, the effects of buffer composition, buffer strength, and incubation time were investigated to measure their influence on the formation of the BNCs and the activity of the enzymes. […]
(§4) The peroxidase activity of native HRP and BNC was monitored using the chromogenic phenol/AAP assay that generates phenoxy radicals that readily react with […] to form the pink-colored quinoneimine dye. An automated plate-reader (Synergy 4, Biotek) with injection capabilities and temperature-controlled chamber was used to record the absorbance of the solution at 510 nm in 96-well plates (4 replicates) for 30 minutes. […]

[2] = target: T2, Horseradish Peroxidase (HRP, E.C. 1.11.1.7, type VI-A) entrapped in M25 magnetite nanoparticle clusters (M25-BNC) (Armoracia rusticana, UniProt P00433); test: Phenol/AAP assay, H2O2 substrate inhibition model, M25-BNC; type: biochemical
T2 construct: purchased
T2 sequence (P00433 31-338 limits assumed): T1 sequence (P00433 31-338 limits assumed)
From the text: as §1, §2, §3, §4

[3] = compared to the free enzyme at the same concentration

In the case of OO [H2O2, hydrogen peroxide], the Vmax ([1]; compared to free HRP) is reported as “similar; also recorded: No difference in Vmax”, the kcat ([1]; compared to free HRP) is reported as “also increased for lower concentrations of enzymes” and the “Ki (H2O2 substrate inhibition constant)” value ([1]; in words, compared to free HRP) is reported as “drastically increased”. For the same molecule, the “Ki (H2O2 substrate inhibition constant), times greater than the free HRP” value ([1]; ratio to free HRP) was “about 10 times”, the “Ki (H2O2 substrate inhibition constant)” value ([2]; compared to free HRP) was “in the same range than the free HRP; also recorded: in the same range, if not lower, than for the free enzymes” and the Km ([2]; compared to free HRP) was “higher Km; also recorded: increased in the case of BNCs formed with M25”. The Vmax [2, 3] was “two to three times greater than the free enzyme; also recorded: increased in the case of BNCs formed with M25 compared to the Vmax of the free enzymes” and the kcat [2, 3] was “two to three times greater than the free enzyme; also recorded: drastically increased in the case of BNCs formed with M25 compared to the free enzyme”.
